Results reported in patent US20260284203A1 (priority 2023, published 2026).
Read-outs that look alike come from different tables or passages of the source.

Columns and labels:
[1] = target: purified capsid protein assembly domain, Cp149 (Hepatitis B virus subtype adyw, UniProt P03147); test: Capsid assembly assay (size exclusion chromatography); assay type: biochemical, HBV; conditions: 10 μM Cp149 dimer, 20 μM compound, 24 h at room temperature, versus capsid control
Description: Stimulation of HBV virus assembly is a known property of CAM molecules. As structural changes can have unpredictable effects on function, a capsid assembly assay was conducted with exemplary rCAM DP41-0012 to evaluate whether the construct retained CAM activity. Relative peak HBV capsid volume following exposure to the exemplary rCAM was determined in comparison to dimer, DMSO, and capsid controls, along with CAM compounds bersacapavir and NVR-3-778.
To test capsid assembly, samples or controls were incubated for 20 minutes with purified capsid protein assembly domain, Cp149, so that final conditions were 10 μM Cp149 dimer 20 μM compound or control 2% DMSO 50 mM TrisHCl pH 7.5. To this mixture was added an equal volume of 600 mM NaCl 50 mM TrisHCl pH 7.5. Reactions were equilibrated for 24 h at room temperature and the resolved by size exclusion chromatography using a 10/300 Superose6 column running at 0.5 ml/minute. The running buffer for this column was 50 mM TrisHCl 300 mM NaCl. Elution profiles were recorded by absorbance at 280 nm. Integrated capsid peaks eluting between 16 and 20 minutes and dimer peaks eluting between 34 and 39 minutes were reported.

[2] = test system: Supercoiled plasmid; test: In vitro DNA nicking assay; assay type: biochemical, E. coli; conditions: 10 μM CuCl2, 3 hours at room temperature (21° C.) in the dark
Description: The capacity of rCAM compounds to cause DNA damage was evaluated using an in vitro DNA nicking assay. Specifically, the double stranded DNA (dsDNA) nicking activity of exemplary rCAM DP41-0012 was compared to CAM compounds bersacapavir and NVR-3-778, and DMSO controls.
Supercoiled plasmid, the substrate for this assay, was purified from E. coli, using a Qiagen miniprep kit. A “master mix” of 3 ng/μl Miniprep DNA, 10 μM CuCl2, 20 mM TrisHCl pH7.5 was prepared. Samples included 99 μl of master mix plus 1 μl of compound or control. Reactions were incubated for 3 hours at room temperature (21° C.) in the dark. Aliquots of the reactions (20 μl) were resolved on a 0.8% TAE agarose gel with 1/20,000 SYBR Safe stain electrophoresed at 80V for 90 minutes. The gel was visualized on a ChemidocMP in fluorescein blot mode.

[3] = test system: in vitro transcribed pregenomic HBV RNA (pgRNA); test: pgRNA activity assay by denaturing agarose gel electrophoresis; assay type: biochemical; conditions: for pgRNA band on denaturing agarose gel / RNA bands on gel, free pgRNA: 900 μM; for pgRNA band on denaturing agarose gel: 1 hour; for RNA signal on gel, free pgRNA: 100 μM; for RNA signal on gel, free pgRNA / RNA bands on gel, free pgRNA: 1% or 10% DMSO
[4] = test system: in vitro transcribed pregenomic HBV RNA (pgRNA); assay type: biochemical; conditions: for effect on pgRNA amplification / RNA transcription (RT-qPCR, Cp gene): either temperature (25° C. or 37° C.)
[5] = target: Cp149 dimers (Hepatitis B virus subtype adyw, UniProt P03147); test: Cp149 dimer assembly with rCAM visualized by transmission electron microscopy; assay type: biochemical, HBV; conditions: dimer:rCAM 1:5, NaCl 300 mM, overnight at 25° C.
Cp149 dimers, sequence (P03147 1-149): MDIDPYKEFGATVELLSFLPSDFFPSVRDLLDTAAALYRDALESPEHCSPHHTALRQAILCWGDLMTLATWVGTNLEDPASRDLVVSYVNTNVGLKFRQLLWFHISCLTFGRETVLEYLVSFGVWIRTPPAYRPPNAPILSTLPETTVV
Description: Cp dimers were assembled with HAP-PEG2-CBL and HAP-PEG4-CBL to verify the HAP backbone's ability to bind the dimer-dimer interface. Cp149 dimers were mixed with each rCAM in a 1:5 ratio (dimer:rCAM). Assembly was induced by addition of NaCl (300 mM) followed by incubation overnight at 25° C. Assembly products were visualized via transmission electron microscopy (TEM) (FIG. 10). Assembly in NaCl alone led to normal spherical capsids (FIG. 10A). […] Boume, C., et al., J Virol 82:10262, 2008.

[6] = 25° C. and 37° C. (both temperature conditions)

purified capsid protein assembly domain, Cp149, sequence (P03147 1-149): as above

## Cn1cc(S(=O)(=O)NCCNC(=O)c2cc(O)c(O)c(O)c2)cc1C(=O)Nc1ccc(F)c(C#N)c1 [DP41-0012, N-(3-cyano-4-fluorophenyl)-1-methyl-4-(N-(2-(3,4,5-trihydroxybenzamido)ethyl)-sulfamoyl)-1H-pyrrole-2-carboxamide]
[1]
  relative peak capsid volume: exceeded that of the capsid control
[2]
  plasmid DNA form seen on agarose gel (dsDNA nicking activity): DNA band corresponding to the size of a nicked circle

## phleomycin
[3]; 37° C.
  pgRNA band on denaturing agarose gel: completely disappeared
[3]; room temperature (25° C.)
  pgRNA band on denaturing agarose gel: reduced in width
[4]; 900 μM, 1 hour
  effect on pgRNA amplification / RNA transcription (RT-qPCR, Cp gene): does not suppress pgRNA amplification appreciably

## CN(C)c1nc(N(C)C)nc(N(C)C)n1 [altretamine]
[4]; 900 μM, 1 hour
  effect on pgRNA amplification / RNA transcription (RT-qPCR, Cp gene): does affect RNA transcription

## O=C(O)CCCc1ccc(N(CCCl)CCCl)cc1 [chlorambucil]
[3]; [6]
  pgRNA band on denaturing agarose gel: completely dissipate RNA
[4]; 900 μM, 1 hour, 25° C.
  reduction in RNA amplification (RT-qPCR, Cp gene): approximately 1 log
[4]; 900 μM, 1 hour, 37° C.
  decrease in RNA levels (RT-qPCR, Cp gene): 4 log

## C[C@H](NS(=O)(=O)c1cc(C(=O)Nc2ccc(F)c(C#N)c2)n(C)c1)C(F)(F)F [bersacapavir]
[2]
  plasmid DNA form seen on agarose gel (dsDNA nicking activity): supercoiled plasmid substrate was detectable

## COC(=O)C1=C(CN2CCN(C(=O)CCOCCOCCOCCOCCOC(=O)CCCc3ccc(N(CCCl)CCCl)cc3)CC2)NC(c2ccccn2)=NC1c1ccc(F)cc1Cl (stereo not drawn) [HAP-PEG4-CBL]
[3]; 37° C.
  RNA signal on gel, free pgRNA: slight reduction in RNA signal
  RNA bands on gel, free pgRNA: almost complete dissipation of RNA bands
[5]
  assembly products seen by TEM: floret-shaped, aberrant particles

## O=C(Nc1cc(F)c(F)c(F)c1)c1ccc(F)c(S(=O)(=O)N2CCC(O)CC2)c1 [NVR-3-778]
[2]
  plasmid DNA form seen on agarose gel (dsDNA nicking activity): supercoiled plasmid substrate was detectable

## N.N.[Cl][Pt][Cl] [cisplatin]
[3]; [6]
  pgRNA band on denaturing agarose gel: faster migrating and smeared bands
[4]
  decrease in RNA levels (RT-qPCR, Cp gene): 3 log
  reduction in RNA amplification (RT-qPCR, Cp gene): approximately 1 log

## CO[C@@]12[C@H](COC(N)=O)C3=C(C(=O)C(C)=C(N)C3=O)N1C[C@@H]1N[C@@H]12 [mitomycin C]
[4]; 900 μM, 1 hour
  effect on pgRNA amplification / RNA transcription (RT-qPCR, Cp gene): does affect RNA transcription

## COC(=O)C1=C(CN2CCN(C(=O)CCOCCOCCOC(=O)CCCc3ccc(N(CCCl)CCCl)cc3)CC2)NC(c2ccccn2)=NC1c1ccc(F)cc1Cl (stereo not drawn) [HAP-PEG2-CBL, Methyl 6-((4-(3-(2-(2-((4-(4-(bis(2-chloroethyl)amino)phenyl)butanoyl)oxy)ethoxy)ethoxy)propanoyl)piperazin-1-yl)methyl)-4-(2-chloro-4-fluorophenyl)-2-(pyridin-2-yl)-1,4-dihydropyrimidine-5-carboxylate]
[3]; 37° C.
  RNA signal on gel, free pgRNA: slight reduction in RNA signal
  RNA bands on gel, free pgRNA: almost complete dissipation of RNA bands
[5]
  assembly products seen by TEM: both spherical capsids, faceted/broken capsids, and flat, aberrant structures
